Data as given in patent US8445674B2, “Heterocyclyl compounds” (Hoffmann-La Roche Inc, priority 2009, dated 2013).
pIC50: −log10 of the molar value.

target: T1, human chemokine receptor 2 isoform B (Homo sapiens, UniProt P41597); experiment: Calcium mobilization assay (FLIPR, antagonist activity against MCP-1); type: cell-based; details: Ca mobilisation assay, CHOK1-CCR2B-A5 cells, inhibition of calcium increase induced by 20 nM MCP-1
T1 construct: host or cells: CHOK1-CCR2B-A5 cells (CHO-K1)
T1 sequence (P41597 1-360 isoform P41597-2): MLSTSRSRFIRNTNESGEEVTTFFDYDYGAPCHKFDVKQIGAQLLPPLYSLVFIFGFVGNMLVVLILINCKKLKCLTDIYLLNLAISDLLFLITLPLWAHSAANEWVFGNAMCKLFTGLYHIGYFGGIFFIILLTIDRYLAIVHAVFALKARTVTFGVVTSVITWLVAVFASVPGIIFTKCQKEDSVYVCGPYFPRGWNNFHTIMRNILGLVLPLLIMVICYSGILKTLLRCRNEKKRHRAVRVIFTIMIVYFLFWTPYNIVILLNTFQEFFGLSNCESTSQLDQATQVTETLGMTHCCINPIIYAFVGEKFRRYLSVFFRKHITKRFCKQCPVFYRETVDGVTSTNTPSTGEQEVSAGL
In short: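 CHOK1 cells stably overexpressing human CCR2B, loaded with 4 μM Fluo-4 for 2 h at 30° C, compounds added and agonist signal read by FLIPR for 80 s. After 20-30 min at 30° C, 20 nM MCP-1 was added and fluorescence read again. IC50 is 50% inhibition of specific calcium increase (max minus basal).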

Compound	pIC50
O=C(/C=C/c1ccc(Cl)c(Cl)c1)N1CCC(=O)N(CCC(=O)N2CCC(O)(c3ccccc3)CC2)CC1 [Example 72, 1-[(E)-3-(3,4-Dichloro-phenyl)-acryloyl]-4-[3-(4-hydroxy-4-phenyl-piperidin-1-yl)-3-oxo-propyl)-[1,4]diazepan-5-one]	6.79
O=C(/C=C/c1ccc(Cl)c(Cl)c1)N1CCC(=O)N(CCC(=O)N2CCC3(CCCC3)CC2)CC1 [Example 83, 4-[3-(8-Aza-spiro[4.5]dec-8-yl)-3-oxo-propyl]-1-[(E)-3-(3,4-dichloro-phenyl)-acryloyl]-[1,4]diazepan-5-one]	6.51
O=C(/C=C/c1ccc(Cl)c(Cl)c1)N1CCC(=O)N(CCC(=O)N2CCC(O)CC2)CC1 [Example 1, 1-[(E)-3-(3,4-Dichloro-phenyl)-acryloyl]-4-[3-(4-hydroxy-piperidin-1-yl)-3-oxo-propyl]-[1,4]diazepan-5-one]	5.57
C[C@H]1C(=O)N(CC[C@H](O)C(=O)N2CCC3(CC3)[C@H](O)C2)CCN1C(=O)Nc1ccc(C(F)(F)F)c(Cl)c1 [Example 134, (S)-4-[(S)-3-Hydroxy-4-((S)-4-hydroxy-6-aza-spiro[2.5]oct-6-yl)-4-oxo-butyl]-2-methyl-3-oxo-piperazine-1-carboxylic acid (3-chloro-4-trifluoromethyl-phenyl)-amide]	6.73
C[C@H]1C(=O)N(CCC(=O)N2CC[C@](C)(CO)[C@H](O)C2)CCN1C(=O)Nc1ccc(Cl)c(Cl)c1 (mixture of isomers) [Example 21, (S)-4-[3-((3SR,4RS)-3-Hydroxy-4-hydroxymethyl-4-methyl-piperidin-1-yl)-3-oxo-propyl]-2-methyl-3-oxo-piperazine-1-carboxylic acid (3,4-dichloro-phenyl)-amide]	6.07
C[C@H]1CCN(C(=O)CCN2CCN(C(=O)Nc3ccc(Cl)c(Cl)c3)[C@@H](C)C2=O)C[C@H]1O [Example 20, (S)-4-[3-((3S,4S)-3-Hydroxy-4-methyl-piperidin-1-yl)-3-oxo-propyl]-2-methyl-3-oxo-piperazine-1-carboxylic acid (3,4-dichloro-phenyl)-amide]	5.97
CC1(CO)CCN(C(=O)CN2CCN(C(=O)/C=C/c3ccc(Cl)c(Cl)c3)CCC2=O)CC1 [Example 99, 1-[(E)-3-(3,4-Dichloro-phenyl)-acryloyl]-4-[2-(4-hydroxymethyl-4-methyl-piperidin-1-yl)-2-oxo-ethyl]-[1,4]diazepan-5-one]	5.30
C[C@H]1C(=O)N(CCCC(=O)N2CCC3(CC3)[C@H](O)C2)C(C(=O)O)CN1C(=O)Nc1ccc(Cl)c(Cl)c1 (mixture of isomers) [Example 120, (2RS,5S)-4-(3,4-Dichloro-phenylcarbamoyl)-1-[4-((S)-4-hydroxy-6-aza-spiro[2.5]oct-6-yl)-4-oxo-butyl]-5-methyl-6-oxo-piperazine-2-carboxylic acid]	6.41
O=C(/C=C/c1ccc(Cl)c(Cl)c1)N1CCC(=O)N(CCC(=O)N2CCC3(CCCO3)CC2)CC1 [Example 86, 1-[(E)-3-(3,4-Dichloro-phenyl)-acryloyl]-4-[3-(1-oxa-8-aza-spiro[4.5]dec-8-yl)-3-oxo-propyl]-[1,4]diazepan-5-one]	6.49
C[C@H]1C(=O)N(CCC(C)(C)C(=O)N2CCC3(CC3)[C@H](O)C2)CCN1C(=O)Nc1ccc(OC(F)(F)F)c(Cl)c1 [Example 51, (S)-4-[4-((S)-4-Hydroxy-6-aza-spiro[2.5]oct-6-yl)-3,3-dimethyl-4-oxo-butyl]-2-methyl-3-oxo-piperazine-1-carboxylic acid (3-chloro-4-trifluoromethoxy-phenyl)-amide]	6.13
C[C@H]1C(=O)N(CCCC(=O)N2CC[C@](C)(CO)[C@H](O)C2)CCN1C(=O)Nc1cccc(Cl)c1 (racemic) [Example 114, (S)-4-[4-((3SR,4RS)-3-Hydroxy-4-hydroxymethyl-4-methyl-piperidin-1-yl)-4-oxo-bulyl]-2-methyl-3-oxo-piperazine-1-carboxylic acid (3-chloro-phenyl)-amide]	7.50
C[C@H]1C(=O)N(CCCC(=O)N2CCC3(CC3)[C@H](O)C2)CCN1C(=O)Nc1ccc(OC(F)(F)F)cc1 [Example 30, (S)-4-[4-((S)-4-Hydroxy-6-aza-spiro[2.5]oct-6-yl)-4-oxo-butyl]-2-methyl-3-oxo-piperazine-1-carboxylic acid (4-trifluoromethoxy-phenyl)-amide]	7.69
C[C@H]1C(=O)N(CC(O)CC(=O)N2CCC3(CC3)[C@H](O)C2)CCN1C(=O)Nc1ccc(C(F)(F)F)c(Cl)c1 (stereo partly drawn) [Example 41, (S)-4-[(R,S)-2-Hydroxy-4-((S)-4-hydroxy-6-aza-spiro[2.5]oct-6-yl)-4-oxo-butyl]-2-methyl-3-oxo-piperazine-1-carboxylic acid (3-chloro-4-trifluoromethyl-phenyl)-amide]	8.25
